Reference: ChEMBL document CHEMBL5257018, “Novel Strategies for the Treatment of Pseudomonas aeruginosa Infections” (J Med Chem, 2016)
Converted amounts (≈) assume the structure as drawn. Values belong to the compound of their own block, whether it stands above or below them. Bridge positions count the residues as written; N and C are the ends. Square brackets hold non-standard residues; d marks the D form. Peptide text beside a SMILES is read from it. * marks the point of attachment. Heptanoyl(6-Me) = CC(C)CCCCC(=O)*; X1 = CC[C@@H](C)CCCCC(=O)*; Dab = NCC[C@H](N)C(=O)O

How the values were obtained:
Pseudomonas aeruginosa [1] = assay: Antibacterial activity against multidrug resistant Pseudomonas aeruginosa assessed as reduction in bacterial growth; format: functional
[2] = Inhibition of bacterial FabH; set-up: species or system Bacteria
Pseudomonas aeruginosa [3] = assay: Inhibition of Pseudomonas aeruginosa PAO1 Pyocyanin at 200 uM relative to control
[4] = target: Elastase (Pseudomonas aeruginosa (strain ATCC 15692 / PAO1 / 1C / PRS 101 / LMG12228)) (UniProt P14756); assay: Inhibition of Pseudomonas aeruginosa PAO1 elastase at 200 uM relative to control
[5] = target: T1, PA-I galactophilic lectin (Pseudomonas aeruginosa (strain ATCC 15692 / PAO1 / 1C / PRS 101 / LMG12228)) (UniProt Q05097); assay: Binding affinity to Pseudomonas aeruginosa PAO1 LecA assessed as dissociation constant
T1 sequence (whole entry): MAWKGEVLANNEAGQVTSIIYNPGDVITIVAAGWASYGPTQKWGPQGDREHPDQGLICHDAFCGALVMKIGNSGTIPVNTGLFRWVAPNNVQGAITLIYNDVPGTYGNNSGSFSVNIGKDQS

[6] = target: T2, Transcriptional activator protein LasR (Pseudomonas aeruginosa (strain ATCC 15692 / PAO1 / 1C / PRS 101 / LMG12228)) (UniProt P25084); assay: Inhibition of Pseudomonas aeruginosa PAO1 LasR at 200 uM relative to control
T2 sequence (whole entry): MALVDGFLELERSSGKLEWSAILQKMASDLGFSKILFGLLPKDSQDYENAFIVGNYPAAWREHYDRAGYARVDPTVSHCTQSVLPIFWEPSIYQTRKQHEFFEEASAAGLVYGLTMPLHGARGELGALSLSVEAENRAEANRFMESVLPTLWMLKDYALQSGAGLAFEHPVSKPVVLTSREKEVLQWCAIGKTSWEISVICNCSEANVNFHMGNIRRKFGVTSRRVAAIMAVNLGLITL

[7] = target: T3, Acyl-homoserine lactone acylase PvdQ (Pseudomonas aeruginosa (strain LESB58), UniProt Q9I194); assay: Inhibition of Pseudomonas aeruginosa ATCC 15692 pvdQ incubated for 4 hrs
T3 sequence (Q9I194 whole entry): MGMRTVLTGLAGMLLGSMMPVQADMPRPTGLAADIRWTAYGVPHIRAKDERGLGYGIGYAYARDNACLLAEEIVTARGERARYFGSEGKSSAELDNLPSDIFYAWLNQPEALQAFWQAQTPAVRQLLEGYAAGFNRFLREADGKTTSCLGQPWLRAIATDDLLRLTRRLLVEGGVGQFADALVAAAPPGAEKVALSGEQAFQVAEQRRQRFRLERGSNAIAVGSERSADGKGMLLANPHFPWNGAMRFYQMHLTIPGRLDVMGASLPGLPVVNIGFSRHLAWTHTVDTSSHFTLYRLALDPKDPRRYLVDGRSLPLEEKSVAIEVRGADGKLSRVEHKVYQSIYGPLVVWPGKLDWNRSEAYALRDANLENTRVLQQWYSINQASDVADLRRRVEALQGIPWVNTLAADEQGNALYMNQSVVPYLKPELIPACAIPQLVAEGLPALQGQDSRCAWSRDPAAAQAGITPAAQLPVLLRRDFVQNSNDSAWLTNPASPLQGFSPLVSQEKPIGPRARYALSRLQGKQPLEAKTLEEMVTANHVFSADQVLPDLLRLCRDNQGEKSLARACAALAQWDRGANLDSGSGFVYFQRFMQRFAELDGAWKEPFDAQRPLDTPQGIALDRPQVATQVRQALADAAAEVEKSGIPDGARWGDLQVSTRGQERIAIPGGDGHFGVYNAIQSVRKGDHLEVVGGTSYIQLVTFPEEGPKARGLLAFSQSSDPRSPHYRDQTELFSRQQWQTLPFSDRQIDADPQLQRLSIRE

[8] = target: T3, Acyl-homoserine lactone acylase PvdQ; assay: Inhibition of Pseudomonas aeruginosa ATCC 15692 pvdQ
Elastase [9] = target: T4, Elastase (Pseudomonas aeruginosa (strain ATCC 15692 / PAO1 / 1C / PRS 101 / LMG12228), UniProt P14756); assay: Inhibition of Pseudomonas aeruginosa LasB elastase
Elastase [10] = target: T4, Elastase; assay: Inhibition of Pseudomonas aeruginosa LasB elastase using aminobenzoyl-Ala-Gly-Leu-Ala-p-nitro-benzyl-amide as substrate b microtiter-based fluorimetric assay
Pseudomonas aeruginosa [11] = assay: Antibacterial activity against Pseudomonas aeruginosa PAO1 infected in Caenorhabditis elegans worms assessed as worms survival at 50 uM measured after 24 hrs; format: functional
Pseudomonas aeruginosa [12] = assay: Inhibition of biofilm formation in Pseudomonas aeruginosa assessed as reduction in biofilm formation; format: functional, organism-based
Pseudomonas aeruginosa [13] = assay: Downregulation of c-di-GMP level in Pseudomonas aeruginosa PA14 planktonic cells harboring wspR gene mutation at 50 uM incubated for 24 hrs by HPLC analysis; format: functional
[14] = target: T3, Acyl-homoserine lactone acylase PvdQ; assay: Inhibition of Pseudomonas aeruginosa ATCC 15692 pvdQ measured after 5 mins
[15] = target: T3, Acyl-homoserine lactone acylase PvdQ; assay: Competitive inhibition of Pseudomonas aeruginosa ATCC 15692 pvdQ
[16] = target: T3, Acyl-homoserine lactone acylase PvdQ; assay: Inhibition of wild type Pseudomonas aeruginosa PAO1 pvdQ
Pseudomonas aeruginosa [17] = assay: Antimicrobial activity against polymyxin resistant Pseudomonas aeruginosa assessed as reduction in bacterial growth; format: functional
Pseudomonas aeruginosa [18] = assay: Antibacterial activity against Pseudomonas aeruginosa PAO1 infected in Caenorhabditis elegans worms assessed as worms survival rate at 880 uM measured after 72 hrs; format: functional
Pseudomonas aeruginosa [19] = assay: Inhibition of Pseudomonas aeruginosa PAO1 Pyocyanin at 440 uM relative to control
[20] = target: T2, Transcriptional activator protein LasR (Pseudomonas aeruginosa (strain ATCC 15692 / PAO1 / 1C / PRS 101 / LMG12228)); assay: Inhibition of Pseudomonas aeruginosa PAO1 LasR at 440 uM relative to control
Pseudomonas aeruginosa [21] = assay: Antagonist activity at Pseudomonas aeruginosa MvfR at 15 uM relative to control; set-up: scale not given: the % may be the effect or the level left; conditions: filed as antagonist
Pseudomonas aeruginosa [22] = assay: Antibacterial activity against Pseudomonas aeruginosa PAO1 assessed as reduction in bacterial growth; format: functional
Pseudomonas aeruginosa [23] = assay: Antimicrobial activity against Pseudomonas aeruginosa assessed as reduction in bacterial growth; format: functional, organism-based

T4 sequence (P14756 whole entry): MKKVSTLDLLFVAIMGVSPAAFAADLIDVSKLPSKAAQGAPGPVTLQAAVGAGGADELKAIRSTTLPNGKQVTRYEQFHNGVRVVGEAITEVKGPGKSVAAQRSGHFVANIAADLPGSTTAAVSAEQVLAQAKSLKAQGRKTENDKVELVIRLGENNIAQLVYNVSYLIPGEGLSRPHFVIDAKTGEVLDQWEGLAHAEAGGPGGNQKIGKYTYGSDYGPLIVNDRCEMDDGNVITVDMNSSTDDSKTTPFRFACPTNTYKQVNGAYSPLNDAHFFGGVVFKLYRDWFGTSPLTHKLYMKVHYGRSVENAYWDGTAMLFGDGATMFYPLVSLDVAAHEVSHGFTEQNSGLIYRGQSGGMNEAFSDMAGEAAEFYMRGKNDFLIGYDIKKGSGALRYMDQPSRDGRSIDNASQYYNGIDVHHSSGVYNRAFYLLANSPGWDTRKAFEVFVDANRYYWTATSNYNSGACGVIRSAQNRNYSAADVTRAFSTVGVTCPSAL
Sequence of Elastase (Pseudomonas aeruginosa (strain ATCC 15692 / PAO1 / 1C / PRS 101 / LMG12228)) (P14756 198-498 limits assumed): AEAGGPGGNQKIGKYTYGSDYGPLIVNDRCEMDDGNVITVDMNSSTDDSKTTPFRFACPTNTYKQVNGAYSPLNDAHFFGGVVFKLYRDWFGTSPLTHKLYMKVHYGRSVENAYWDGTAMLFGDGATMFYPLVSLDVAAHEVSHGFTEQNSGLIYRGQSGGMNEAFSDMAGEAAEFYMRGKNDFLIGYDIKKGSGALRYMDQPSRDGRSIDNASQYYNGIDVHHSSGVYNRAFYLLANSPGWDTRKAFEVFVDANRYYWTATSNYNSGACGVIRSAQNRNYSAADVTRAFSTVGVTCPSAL

SMILES: CNc1cc(F)cc2c1[nH]c1nc(Sc3cnc(C)nc3)nc(N3C[C@H]4C[C@@H](N(C)C)[C@H]4C3)c12
MIC (Pseudomonas aeruginosa [1]): 2 µg/mL (≈ 4.18 µM)

IC50 [2]: 35 µM
SMILES: CCN(CC)S(=O)(=O)c1cccc(C(=O)Nc2cccc(O)c2C(=O)O)c1

inhibition (Pseudomonas aeruginosa [3]): 93% | inhibition [4]: 63%
SMILES: CCCCCCCCCC(=O)CC(=O)Nc1cccc(OC)c1

K [5]: 28 nM
SMILES: OC[C@H]1O[C@@H](OCc2cn([C@H]3[C@H](O)[C@@H](O)[C@H](c4cn([C@H]5[C@H](O)[C@@H](O)[C@H](n6cc([C@@H]7O[C@H](CO)[C@@H](n8cc(CO[C@@H]9O[C@H](CO)[C@H](O)[C@H](O)[C@H]9O)nn8)[C@H](O)[C@H]7O)nn6)O[C@@H]5CO)nn4)O[C@@H]3CO)nn2)[C@H](O)[C@@H](O)[C@H]1O

inhibition [6]: 77%
SMILES: O=C(Cc1ccc(Br)cc1)N[C@H]1CCOC1=O

IC50 [7]: < 0.02 µM | IC50 [8]: 65 µM
SMILES: O=c1onc2n1-c1cc(Br)ccc1OC2

IC50 (Elastase [9]): 6 µM | Ki (Elastase [10]): 0.041 µM
SMILES: NC(=O)[C@H](Cc1ccc(O)cc1)NC(=O)[C@H](Cc1ccccc1)NC(=O)CS

IC50 (Pseudomonas aeruginosa [12]): 8 µM
SMILES: O=C(CCCOc1ccc(Br)cc1)NC1CCSC1=O (stereo unspecified)
Activity (Pseudomonas aeruginosa [11]): 23%

SMILES: O=C1c2ccccc2[Se](=O)N1c1ccccc1 (stereo unspecified)
Activity (Pseudomonas aeruginosa [13]): 80%

IC50 [14]: 1.9 µM | Ki [15]: 0.00019 µM | IC50 [16]: 19 µM
SMILES: N#CC(c1ccc(F)cc1)c1cccc(C(F)(F)F)n1 (stereo unspecified)

SMILES: CC[C@@H](C)CCCCC(=O)N[C@@H](CCN)C(=O)N[C@H](C(=O)N[C@@H](CCN)C(=O)N[C@H]1CCNC(=O)[C@H]([C@@H](C)O)NC(=O)[C@H](CCN)NC(=O)[C@H](CCN)NC(=O)[C@H](CC(C)C)NC(=O)[C@@H](Cc2ccccc2)NC(=O)[C@H](CCN)NC1=O)[C@@H](C)O (X1-[Dab]T[Dab][Dab][Dab][dF]L[Dab][Dab]T; lactam 4-C)
MIC (Pseudomonas aeruginosa [17]): < 2 µg/mL

inhibition (Pseudomonas aeruginosa [19]): 85% | inhibition [20]: 48%
SMILES: O=C1CNC(=O)CN1 [DIKETOPIPERAZINE]
Activity (Pseudomonas aeruginosa [18]): 66%

Activity (Pseudomonas aeruginosa [21]): 44%
SMILES: CCCCCCCc1cc(=O)c2cc([N+](=O)[O-])ccc2[nH]1

SMILES: CC(C)CCCCC(=O)N[C@@H](CCN)C(=O)N[C@H](C(=O)N[C@@H](CCN)C(=O)N[C@H]1CCNC(=O)[C@H]([C@@H](C)O)NC(=O)[C@H](CCN)NC(=O)[C@H](CCN)NC(=O)[C@H](CC(C)C)NC(=O)[C@@H](Cc2ccccc2)NC(=O)[C@H](CCN)NC1=O)[C@@H](C)O [POLYMYXIN B2] ({Heptanoyl(6-Me)}-[Dab]T[Dab][Dab][Dab][dF]L[Dab][Dab]T; lactam 4-C)
MIC (Pseudomonas aeruginosa [17]): < 2 µg/mL

MIC (Pseudomonas aeruginosa [22]): > 200 µM | MIC (Pseudomonas aeruginosa [23]): 0.39 µM (≈ 0.505 µg/mL)
SMILES: CC(=O)Oc1cccc(C(=O)NCCCC(CCCNC(=O)c2cccc(OC(C)=O)c2OC(C)=O)(CCCNC(=O)c2cccc(OC(C)=O)c2OC(C)=O)NC(=O)CCC(=O)N[C@@H](C(=O)N[C@@H]2C(=O)N3[C@@H]2SC(C)(C)[C@@H]3C(=O)O)c2ccccc2)c1OC(C)=O

IC50 [7]: < 0.02 µM | IC50 [8]: 130 µM
SMILES: C=CCNc1ncnc2ccc(Br)cc12
